In patent US4536397A, “Antibiotics, neoviridogriseins, and their method of production” (Sanraku-Ocean Co., Ltd., priority 1983, dated 1985):
In brackets after ≈: the same amount, converted by molar mass. Starred links: 1 amine or outer side, 2 acyl side, 3 side chain; linkers in the order of their positions; H or OH if unused. Positions of bridges follow the written chain, without caps; N, C: chain ends. Non-standard residues stand in square brackets, D forms with d. Residues, ends and D or L forms follow the SMILES beside them. ξ: configuration not given here. *: point of attachment. NMeLeu(3ξ-Me) = CN[C@H](C(=O)O)C(C)C(C)C; X1 = CC(C)C(C)C(C(=O)[*:2])N(C)[*:1]; Picolinoyl(3-OH) = O=C(c1ncccc1O)*; NMePhg = CN[CH](C(=O)O)c1ccccc1; Thr(3ξ) = CC(O)[C@H](N)C(=O)O; Abu = CC[C@H](N)C(=O)O; Sar = CNCC(=O)O

Tests used:
Staphylococcus aureus [1] = experiment: MIC, tube dilution method; type: cell-based; conditions: BHI broth
Staphylococcus sp. = experiment: MIC, tube dilution method; type: cell-based; conditions: BHI broth
[2] = tested on: Diplococcus pneumoniac type 1; experiment: MIC, tube dilution method; type: cell-based, Diplococcus pneumoniae; conditions: BHI broth containing 10% horse blood
Streptococcus pyogenes = experiment: MIC, tube dilution method; type: cell-based; conditions: BHI broth containing 10% horse blood
Sarcina lutea = experiment: MIC, tube dilution method (incl. synergism with griseoviridin); type: cell-based; conditions: Table 1; BHI broth
[3] = tested on: Bacillus subtilis ATCC 6633; experiment: MIC, tube dilution method; type: cell-based; conditions: BHI broth
Salmonella gallinanum = experiment: MIC, tube dilution method; type: cell-based; conditions: BHI broth
Escherichia coli = experiment: MIC, tube dilution method; type: cell-based; conditions: BHI broth
Pseudeomonas aeruginosa = experiment: MIC, tube dilution method; type: cell-based; conditions: BHI broth
Proteus vulgaris = experiment: MIC, tube dilution method; type: cell-based; conditions: BHI broth
Candida albicans = experiment: MIC, tube dilution method; type: cell-based; conditions: malt extract-yeast extract medium
[4] = tested on: Mycoplasma gallisepticum KP13; experiment: MIC, dilution method, Mycoplasma; type: cell-based; design: unit not given beside the values; conditions: Table 4; PPLO enrichment broth (Eiken)
Description: (§1) The MIC were determined by the dilution method.
Medium (1): PPLO enrichment broth (Eiken, Japan)
(§2) was tested in vitro agains several Mycoplasma strains.

[5] = tested on: Mycoplasma agalactiae PG 2; experiment: MIC, dilution method, Mycoplasma; type: cell-based; conditions: Table 4; PPLO broth (Chanock's medium; Difco)
Description: as §1
(§3) (2): PPLO broth (Chanock's medium; Difco)
as §2

Mycoplasma fermentans = experiment: MIC, dilution method, Mycoplasma; type: cell-based; conditions: Table 4; PPLO broth (Chanock's medium; Difco)
Description: as §1, §3, §2

[6] = tested on: Mycoplasma pulmonis PG 22; experiment: MIC, dilution method, Mycoplasma; type: cell-based; conditions: Table 4; PPLO broth (Chanock's medium; Difco)
Description: as §1, §3, §2

Solubility in solvents = type: physicochemical; conditions: for solubility in organic solvents: methanol, ethanol, propanols, n-butanol, dioxane, acetates, ketones, benzene, toluene, chlorinated solvents, DMF, DMSO
Staphylococcus aureus [7] = experiment: MIC repeated with a far lower dilution rate; type: cell-based; conditions: for MIC: far lower dilution rate, brain heart infusion broth
Text: This MIC experiment was based on the two-fold dilutions. To differentiate neoviridogrisein II and viridogrisein in their antibiotic activity, the MIC determination was repeated with a far lower dilution rate.
Medium: brain heart infusion broth

[8] = Growth promotion in chicks on rye diet, 11 days; type: in vivo; conditions: diet conc 100 ppm
Description: was tested in vivo by incorporation in the diet of growing chicks. One-day old cockerels, 15 birds per treatment were used. The chicks were maintained for 11 days on a feed containing about 55% rye grain, supplemented with vitamins, minerals, fat and protein sources. The high content of rye grain normally gives poor to moderate growth, and this diet is a standard one used for screening growth promoters and antibiotic feed additives. Penicillin (100 ppm) was used as a positive control. Feed/Gain ratio is grams feed consumed per gram of weight gained. Body weight ratio is the ratio of chick body weight at the end of the 11 day study to the initial body weight. The last column is the average gain per bird (in grams).

## CC(C)CC1NC(=O)C(NC(=O)c2ncccc2O)C(C)OC(=O)C(c2ccccc2)N(C)C(=O)C(C)NC(=O)C(C(C)C(C)C)N(C)C(=O)CN(C)C(=O)C2CCCN2C1=O (stereo not shown) [NV II, neoviridogrisein II] ({Picolinoyl(3-OH)}-TLP[Sar][X1]A[NMePhg]; ester 1-C; configuration not given here)
Staphylococcus aureus [1]; strain 209P
  MIC: 0.1 µg/mL (≈ 0.116 µM)
Staphylococcus aureus [1]; strain (BX-1633)(PC)r
  MIC: 0.2 µg/mL (≈ 0.232 µM)
Staphylococcus aureus [1]; strain (EM)r
  MIC: 0.4 µg/mL (≈ 0.463 µM)
Staphylococcus aureus [1]; strain (EM, CM, SM, PC, TC)r
  MIC: 0.2 µg/mL (≈ 0.232 µM)
Staphylococcus aureus [1]; strain (EM, OM)r
  MIC: 0.4 µg/mL (≈ 0.463 µM)
Staphylococcus aureus [1]; strain (PC, EM, NM)r
  MIC: 0.4 µg/mL (≈ 0.463 µM)
Staphylococcus aureus [1]; strain (PC, TC, EM, LM)r 1
  MIC: 6.25 µg/mL (≈ 7.24 µM)
Staphylococcus aureus [1]; strain (PC, TC, EM, LM)r 2
  MIC: 6.25 µg/mL (≈ 7.24 µM)
Staphylococcus aureus [1]; strain (SM, STH)r
  MIC: 0.2 µg/mL (≈ 0.232 µM)
Staphylococcus aureus [1]; strain (STH)r
  MIC: 0.8 µg/mL (≈ 0.927 µM)
Staphylococcus aureus [1]; strain (TC, CP, PC)r
  MIC: 0.2 µg/mL (≈ 0.232 µM)
Staphylococcus aureus [1]; strain (TC, EM, LM, CP)r
  MIC: 6.25 µg/mL (≈ 7.24 µM)
Staphylococcus aureus [1]; strain Russell(PC)r
  MIC: 0.2 µg/mL (≈ 0.232 µM)
Staphylococcus aureus [1]; strain Smith
  MIC: 0.2 µg/mL (≈ 0.232 µM)
Staphylococcus sp.; Staphylococcus sp. (PC)r
  MIC: 0.4 µg/mL (≈ 0.463 µM)
Staphylococcus sp.; Staphylococcus sp.
  MIC: 0.8 µg/mL (≈ 0.927 µM)
[2]
  MIC: 0.4 µg/mL (≈ 0.463 µM)
Streptococcus pyogenes
  MIC: 0.2 µg/mL (≈ 0.232 µM)
Sarcina lutea
  MIC: 0.4 µg/mL
[3]
  MIC: 0.4 µg/mL (≈ 0.463 µM)
Salmonella gallinanum
  MIC: > 25 µg/mL
Escherichia coli
  MIC: > 25 µg/mL
Pseudeomonas aeruginosa
  MIC: > 25 µg/mL
Proteus vulgaris
  MIC: > 25 µg/mL
Candida albicans
  MIC: > 25 µg/mL
[4]
  MIC: 0.025
[5]
  MIC: 0.39
Mycoplasma fermentans
  MIC: < 0.05
[6]
  MIC: 0.78
Solubility in solvents
  solubility in organic solvents: soluble
  solubility in petroleum ether and hexane: practically insoluble
  solubility in water and ethyl ether: hardly soluble
Staphylococcus aureus [7]; from the MIC values of Table 2
  times more active than viridogrisein: 2-3 times
Staphylococcus aureus [7]; strain 209 P
  MIC: 0.078 µg/mL (≈ 0.0904 µM)
Staphylococcus aureus [7]; strain (EM, CM, SM, PC, TC)r
  MIC: 0.125 µg/mL (≈ 0.145 µM)
Staphylococcus aureus [7]; strain (TC, CP, PC)r
  MIC: 0.094 µg/mL (≈ 0.109 µM)
Staphylococcus aureus [7]; strain Bx-1633(PC)r
  MIC: 0.125 µg/mL (≈ 0.145 µM)
Staphylococcus aureus [7]; strain Russell(PC)r
  MIC: 0.125 µg/mL (≈ 0.145 µM)
Staphylococcus aureus [7]; strain Smith
  MIC: 0.125 µg/mL (≈ 0.145 µM)

## CC[C@@H]1NC(=O)[C@H](C(C)C(C)C)N(C)C(=O)CN(C)C(=O)[C@H]2CCCN2C(=O)[C@@H](CC(C)C)NC(=O)[C@@H](NC(=O)c2ncccc2O)C(C)OC(=O)[C@H](c2ccccc2)N(C)C1=O (stereo partly drawn) [NV I, neoviridogrisein I] ({Picolinoyl(3-OH)}-[Thr(3ξ)][dL][dP][Sar][NMeLeu(3ξ-Me)][Abu][NMePhg]; ester 1-C)
Staphylococcus aureus [1]; strain 209P
  MIC: 0.2 µg/mL (≈ 0.228 µM)
Staphylococcus aureus [1]; strain (BX-1633)(PC)r
  MIC: 0.4 µg/mL (≈ 0.456 µM)
Staphylococcus aureus [1]; strain (EM)r
  MIC: 0.4 µg/mL (≈ 0.456 µM)
Staphylococcus aureus [1]; strain (EM, CM, SM, PC, TC)r
  MIC: 0.4 µg/mL (≈ 0.456 µM)
Staphylococcus aureus [1]; strain (EM, OM)r
  MIC: 0.8 µg/mL (≈ 0.912 µM)
Staphylococcus aureus [1]; strain (PC, EM, NM)r
  MIC: 0.8 µg/mL (≈ 0.912 µM)
Staphylococcus aureus [1]; strain (PC, TC, EM, LM)r 1
  MIC: 6.25 µg/mL (≈ 7.13 µM)
Staphylococcus aureus [1]; strain (PC, TC, EM, LM)r 2
  MIC: 6.25 µg/mL (≈ 7.13 µM)
Staphylococcus aureus [1]; strain (SM, STH)r
  MIC: 0.4 µg/mL (≈ 0.456 µM)
Staphylococcus aureus [1]; strain (STH)r
  MIC: 0.8 µg/mL (≈ 0.912 µM)
Staphylococcus aureus [1]; strain (TC, CP, PC)r
  MIC: 0.2 µg/mL (≈ 0.228 µM)
Staphylococcus aureus [1]; strain (TC, EM, LM, CP)r
  MIC: 6.25 µg/mL (≈ 7.13 µM)
Staphylococcus aureus [1]; strain Russell(PC)r
  MIC: 0.2 µg/mL (≈ 0.228 µM)
Staphylococcus aureus [1]; strain Smith
  MIC: 0.2 µg/mL (≈ 0.228 µM)
Staphylococcus sp.; Staphylococcus sp. (PC)r
  MIC: 0.8 µg/mL (≈ 0.912 µM)
Staphylococcus sp.; Staphylococcus sp.
  MIC: 0.8 µg/mL (≈ 0.912 µM)
[2]
  MIC: 0.2 µg/mL (≈ 0.228 µM)
Streptococcus pyogenes
  MIC: 0.4 µg/mL (≈ 0.456 µM)
Sarcina lutea
  MIC: 0.2 µg/mL
[3]
  MIC: 0.4 µg/mL (≈ 0.456 µM)
Salmonella gallinanum
  MIC: > 25 µg/mL
Escherichia coli
  MIC: > 25 µg/mL
Pseudeomonas aeruginosa
  MIC: > 25 µg/mL
Proteus vulgaris
  MIC: > 25 µg/mL
Candida albicans
  MIC: > 25 µg/mL
Solubility in solvents
  solubility in organic solvents: soluble
  solubility in petroleum ether and hexane: practically insoluble
  solubility in water and ethyl ether: hardly soluble

## CC1(C)S[C@@H]2[C@H](NC(=O)Cc3ccccc3)C(=O)N2[C@H]1C(=O)O [Penicillin]
[8]; 11 days, grams feed consumed per gram of weight gained
  FEED/GAIN RATIO: 1.197
[8]; average gain per bird, 11 days
  AVG B.W.GAIN: 163.20 GMS
[8]; body weight at end of 11 days to initial
  BODY WEIGHT RATIO: 5.012
